Assay [1] addresses T1, Aryl hydrocarbon receptor (Mus musculus, UniProt P30561).
T1 sequence (P30561 whole entry): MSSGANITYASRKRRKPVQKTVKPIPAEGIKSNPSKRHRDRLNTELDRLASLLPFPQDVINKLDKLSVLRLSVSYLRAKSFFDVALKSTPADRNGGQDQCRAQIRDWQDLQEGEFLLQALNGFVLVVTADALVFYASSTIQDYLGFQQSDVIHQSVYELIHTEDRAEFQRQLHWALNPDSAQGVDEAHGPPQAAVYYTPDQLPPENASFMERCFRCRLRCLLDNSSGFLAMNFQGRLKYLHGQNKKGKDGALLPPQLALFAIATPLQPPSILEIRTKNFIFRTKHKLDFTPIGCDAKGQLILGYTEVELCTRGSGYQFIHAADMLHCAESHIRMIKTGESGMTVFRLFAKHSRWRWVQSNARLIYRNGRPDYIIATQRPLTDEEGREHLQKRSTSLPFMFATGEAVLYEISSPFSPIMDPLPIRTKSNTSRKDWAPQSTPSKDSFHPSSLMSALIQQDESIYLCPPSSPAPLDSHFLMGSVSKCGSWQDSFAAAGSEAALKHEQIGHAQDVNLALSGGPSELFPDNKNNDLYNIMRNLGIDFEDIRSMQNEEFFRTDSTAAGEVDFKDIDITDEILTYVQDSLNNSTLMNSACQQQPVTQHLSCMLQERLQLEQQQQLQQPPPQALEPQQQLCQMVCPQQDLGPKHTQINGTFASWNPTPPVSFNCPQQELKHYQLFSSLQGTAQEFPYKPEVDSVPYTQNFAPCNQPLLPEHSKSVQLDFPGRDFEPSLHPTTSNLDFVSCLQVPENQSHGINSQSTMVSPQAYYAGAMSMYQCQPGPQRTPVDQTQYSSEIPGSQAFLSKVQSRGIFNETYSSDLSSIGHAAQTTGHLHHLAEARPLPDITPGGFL
Briefly: Displacement of [3H]TCDD from mouse AhR. For orientation: Displacement assays read how much labelled ligand stays bound in the presence of the test substance.

In assay [2] the target is T1, Aryl hydrocarbon receptor. In words: Displacement of 2-azido-3-[125I]7,8-dibromodibenzo-pdioxin from C57BL/6J mouse liver AhR incubated for 20 mins by gamma counting based autoradiography.
Assay [3] deals with T2, Aryl hydrocarbon receptor (Homo sapiens, UniProt P35869).
T2 sequence (P35869 whole entry): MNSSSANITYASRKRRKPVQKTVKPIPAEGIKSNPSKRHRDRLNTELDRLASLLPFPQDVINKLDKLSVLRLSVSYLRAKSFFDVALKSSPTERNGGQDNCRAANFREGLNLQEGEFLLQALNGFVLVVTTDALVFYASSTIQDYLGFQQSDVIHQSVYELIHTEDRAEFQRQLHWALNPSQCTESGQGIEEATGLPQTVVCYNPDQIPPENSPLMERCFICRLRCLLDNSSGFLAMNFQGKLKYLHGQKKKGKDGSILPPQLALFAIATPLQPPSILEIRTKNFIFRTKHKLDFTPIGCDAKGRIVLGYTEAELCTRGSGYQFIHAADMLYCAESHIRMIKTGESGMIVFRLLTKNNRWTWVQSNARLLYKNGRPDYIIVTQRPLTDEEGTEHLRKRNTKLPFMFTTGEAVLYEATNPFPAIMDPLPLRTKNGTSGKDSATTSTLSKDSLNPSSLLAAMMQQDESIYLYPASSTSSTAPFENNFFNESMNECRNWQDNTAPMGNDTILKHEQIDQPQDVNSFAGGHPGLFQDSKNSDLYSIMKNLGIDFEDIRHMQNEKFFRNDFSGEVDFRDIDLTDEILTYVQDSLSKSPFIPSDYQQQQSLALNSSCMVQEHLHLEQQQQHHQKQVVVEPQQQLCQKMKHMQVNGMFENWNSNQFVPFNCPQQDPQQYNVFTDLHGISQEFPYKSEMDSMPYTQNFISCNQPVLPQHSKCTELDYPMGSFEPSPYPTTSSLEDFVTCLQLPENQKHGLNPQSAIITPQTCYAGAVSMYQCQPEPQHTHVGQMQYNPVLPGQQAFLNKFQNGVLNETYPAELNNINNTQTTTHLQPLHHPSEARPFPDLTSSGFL
In words: Displacement of [3H] 3-MC from AhR (unknown origin).

The target in assay [4] is T2, Aryl hydrocarbon receptor. In words: Binding affinity to AhR (unknown origin) relative to TCDD.
Assay [5] deals with T2, Aryl hydrocarbon receptor. In words: Binding affinity to AhR (unknown origin).
Assay [6] addresses T1, Aryl hydrocarbon receptor. In words: Displacement of 2-azido-3-[125I]7,8-dibromodibenzo-pdioxin from C57BL/6J mouse liver AhR relative to TCDD.
The target of assay [7] is T1, Aryl hydrocarbon receptor. Briefly: Displacement of 2-azido-3-[125I]7,8-dibromodibenzo-pdioxin from C57BL/6J mouse liver AhR.
Assay [8] addresses T2, Aryl hydrocarbon receptor. In words: Inhibition of AhR (unknown origin).

Structures are written as SMILES.

The term Kd denotes the concentration at which binding is half-saturated. A low value points to higher affinity. As for `COC(=O)c1csc(C(=O)c2c[nH]c3ccccc23)n1`, binding in assay [1] was characterised by a dissociation constant (Kd) of 3 nM. This counts as single-digit nanomolar.

As usually defined, the IC50 is the midpoint of a concentration-inhibition curve. Read a low IC50 as inhibition by little substance. For `COc1ccc(-c2cc(=O)c3ccc4ccccc4c3o2)cc1OC`, in assay [2], the IC50 was found to be 21 nM.

Take `O=c1c2cccc3cccc(c32)c2nc3ccc(Cl)cc3n12`: in assay [3], the IC50 worked out at 2.6 nM.

By EC50 is commonly meant the concentration needed to bring the measured effect to its halfway point. Lower therefore signals a more potent agent. On to `Cc1cc(Cl)cc2c1oc1cc(Cl)cc(Cl)c12`, for which a half-maximal effect in assay [4] (EC50) was put at 49 nM. This molecule also had a dissociation constant Kd in assay [5] of 0.13 nM.

For `O=c1cc(-c2ccccc2)oc2c1ccc1ccccc12` [ALPHA-NAPHTHOFLAVONE], the IC50 in assay [2] came out at 25 nM.

Take `c1ccc2c(Cc3c[nH]c4ccccc34)c[nH]c2c1` [ARUNDINE]: in assay [6], the EC50 was found to be 78000 nM. In assay [7], the Kd turned out to be 90 nM.

By Ki is commonly meant a measure of affinity in units of concentration, obtained from inhibition or displacement. On to `Nc1ccccc1C(=O)C[C@H](N)C(=O)O` [L-KYNURENINE], for which the affinity in assay [8], expressed as Ki, was 21600 nM.

Source of the values: ChEMBL document CHEMBL4321850, “Targeting Aryl hydrocarbon receptor for next-generation immunotherapies: Selective modulators (SAhRMs) versus rapidly metabolized ligands (RMAhRLs)” (Eur J Med Chem, 2020).
